Results as given in patent US8604021B2, “Substituted arylamine compounds and methods of treatment” (priority 2005, dated 2013).
Where a name gives a salt, the structure may show the parent alone. Read-outs that look alike come from different tables or passages of the source.

Columns and labels:
5-HT6 receptor = 5-HT6 receptor (Homo sapiens, UniProt P50406); experiment: 5-HT6 receptor binding
[1] = Food intake, body weight and plasma biomarkers in DIO (diet-induced obese) rats; assay type: in vivo; details: DIO rats, 3, 10 mg/kg bid, two weeks
5HT1A = target: T1, 5HT1A (Homo sapiens, UniProt P08908); experiment: Compound Binding Profiles: 5HT1A; details: read-out: 5HT1A binding class
T1 sequence (P08908 1-422): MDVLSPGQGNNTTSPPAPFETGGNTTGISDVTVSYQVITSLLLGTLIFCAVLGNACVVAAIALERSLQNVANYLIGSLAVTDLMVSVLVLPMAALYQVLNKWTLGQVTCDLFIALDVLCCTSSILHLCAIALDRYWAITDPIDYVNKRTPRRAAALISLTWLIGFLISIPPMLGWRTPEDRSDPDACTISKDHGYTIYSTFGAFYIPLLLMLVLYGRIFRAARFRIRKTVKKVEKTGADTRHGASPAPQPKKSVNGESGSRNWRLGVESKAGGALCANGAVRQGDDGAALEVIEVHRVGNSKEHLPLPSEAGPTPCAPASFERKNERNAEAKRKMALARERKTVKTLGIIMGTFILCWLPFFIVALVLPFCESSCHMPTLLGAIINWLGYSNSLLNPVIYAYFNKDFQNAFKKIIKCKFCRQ

5HT2A = 5HT2A (Homo sapiens, UniProt P28223); experiment: Compound Binding Profiles: 5HT2A
Chain of 5HT2A (P28223 whole entry, species assumed): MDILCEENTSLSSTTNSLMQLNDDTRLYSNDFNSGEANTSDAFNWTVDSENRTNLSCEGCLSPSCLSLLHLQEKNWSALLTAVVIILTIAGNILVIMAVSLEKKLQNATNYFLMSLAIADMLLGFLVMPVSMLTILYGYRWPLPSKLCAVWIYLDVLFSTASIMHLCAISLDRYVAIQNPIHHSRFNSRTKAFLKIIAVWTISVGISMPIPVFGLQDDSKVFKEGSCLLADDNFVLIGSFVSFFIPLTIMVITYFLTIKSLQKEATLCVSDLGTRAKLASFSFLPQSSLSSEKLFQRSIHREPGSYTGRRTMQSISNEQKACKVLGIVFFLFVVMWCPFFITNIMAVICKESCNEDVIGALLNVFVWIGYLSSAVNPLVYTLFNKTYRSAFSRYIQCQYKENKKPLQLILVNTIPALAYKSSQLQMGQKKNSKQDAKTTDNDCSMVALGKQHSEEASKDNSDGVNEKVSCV

5HT2C = target: T2, 5HT2C (Homo sapiens, UniProt P28335); experiment: Compound Binding Profiles: 5HT2C
T2 sequence (P28335 33-458): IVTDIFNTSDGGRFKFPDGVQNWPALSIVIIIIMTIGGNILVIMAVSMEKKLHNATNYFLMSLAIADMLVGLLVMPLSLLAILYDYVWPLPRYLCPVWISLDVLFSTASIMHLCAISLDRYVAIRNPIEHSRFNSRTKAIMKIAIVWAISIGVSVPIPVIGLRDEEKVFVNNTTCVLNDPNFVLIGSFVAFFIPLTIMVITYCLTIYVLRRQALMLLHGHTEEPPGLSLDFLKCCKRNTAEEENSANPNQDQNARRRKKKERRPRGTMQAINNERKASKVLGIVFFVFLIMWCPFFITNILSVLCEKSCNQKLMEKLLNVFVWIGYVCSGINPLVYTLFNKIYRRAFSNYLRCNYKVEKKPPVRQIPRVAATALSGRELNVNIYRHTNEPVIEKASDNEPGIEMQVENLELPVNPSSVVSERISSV

D1 = D1 (Homo sapiens, UniProt P21728); experiment: Compound Binding Profiles: D1; details: read-out: D1 binding class
Chain of D1 (P21728 whole entry): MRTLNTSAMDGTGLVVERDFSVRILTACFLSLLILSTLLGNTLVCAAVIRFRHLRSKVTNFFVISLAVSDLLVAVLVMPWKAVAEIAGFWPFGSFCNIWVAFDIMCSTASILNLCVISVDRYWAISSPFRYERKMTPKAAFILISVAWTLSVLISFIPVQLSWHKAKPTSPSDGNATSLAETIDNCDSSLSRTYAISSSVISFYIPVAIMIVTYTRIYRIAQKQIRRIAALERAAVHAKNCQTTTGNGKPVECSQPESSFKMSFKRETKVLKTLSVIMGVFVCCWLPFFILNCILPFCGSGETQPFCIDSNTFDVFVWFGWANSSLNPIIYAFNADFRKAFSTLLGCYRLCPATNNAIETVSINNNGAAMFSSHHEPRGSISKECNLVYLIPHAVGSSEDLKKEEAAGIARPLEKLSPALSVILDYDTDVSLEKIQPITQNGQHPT

D2 = D2 (Homo sapiens, UniProt P14416); experiment: Compound Binding Profiles: D2; details: * = Estimated IC50
Chain of D2 (P14416 whole entry): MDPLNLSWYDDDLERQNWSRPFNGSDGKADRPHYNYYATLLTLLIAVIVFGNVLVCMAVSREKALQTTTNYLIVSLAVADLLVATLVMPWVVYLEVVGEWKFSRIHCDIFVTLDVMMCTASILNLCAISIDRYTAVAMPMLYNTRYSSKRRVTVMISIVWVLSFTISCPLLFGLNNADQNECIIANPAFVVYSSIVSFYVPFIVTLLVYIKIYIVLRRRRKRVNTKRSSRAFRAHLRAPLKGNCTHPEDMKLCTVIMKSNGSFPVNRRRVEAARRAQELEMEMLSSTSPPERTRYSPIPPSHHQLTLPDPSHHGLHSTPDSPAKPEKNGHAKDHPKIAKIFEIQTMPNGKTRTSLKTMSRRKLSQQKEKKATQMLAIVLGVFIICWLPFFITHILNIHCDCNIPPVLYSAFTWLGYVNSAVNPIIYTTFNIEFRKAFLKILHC

D3 = D3 (Homo sapiens, UniProt P35462); experiment: Compound Binding Profiles: D3
Chain of D3 (P35462 whole entry): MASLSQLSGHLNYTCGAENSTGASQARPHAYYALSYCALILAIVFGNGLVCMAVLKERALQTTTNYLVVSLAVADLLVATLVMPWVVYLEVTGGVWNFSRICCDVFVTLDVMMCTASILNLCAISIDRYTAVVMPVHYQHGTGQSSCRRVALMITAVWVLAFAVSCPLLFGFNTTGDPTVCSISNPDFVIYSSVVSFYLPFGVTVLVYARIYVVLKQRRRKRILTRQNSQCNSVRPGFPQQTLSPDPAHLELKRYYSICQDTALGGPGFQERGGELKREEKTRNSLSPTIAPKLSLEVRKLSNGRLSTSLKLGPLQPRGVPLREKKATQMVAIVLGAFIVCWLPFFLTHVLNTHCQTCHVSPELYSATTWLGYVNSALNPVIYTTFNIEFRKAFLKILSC

D4 = target: T3, D4 (Homo sapiens, UniProt P21917); experiment: Compound Binding Profiles: D4; details: read-out: D4 binding class
T3 sequence (P21917 1-419): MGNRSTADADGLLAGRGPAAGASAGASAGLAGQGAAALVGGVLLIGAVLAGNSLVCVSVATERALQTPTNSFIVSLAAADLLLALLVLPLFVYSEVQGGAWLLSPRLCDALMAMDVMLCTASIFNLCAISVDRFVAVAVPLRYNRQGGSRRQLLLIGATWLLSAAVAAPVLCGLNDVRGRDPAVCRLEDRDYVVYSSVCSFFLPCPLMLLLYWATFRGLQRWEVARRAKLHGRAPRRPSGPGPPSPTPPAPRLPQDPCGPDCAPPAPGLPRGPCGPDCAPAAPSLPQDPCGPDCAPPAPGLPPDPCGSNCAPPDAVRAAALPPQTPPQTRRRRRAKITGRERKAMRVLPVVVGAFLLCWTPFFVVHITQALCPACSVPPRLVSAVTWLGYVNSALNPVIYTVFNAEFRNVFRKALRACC

M1 = target: T4, M1 (Homo sapiens, UniProt P11229); experiment: Compound Binding Profiles: M1
T4 sequence (P11229 1-460): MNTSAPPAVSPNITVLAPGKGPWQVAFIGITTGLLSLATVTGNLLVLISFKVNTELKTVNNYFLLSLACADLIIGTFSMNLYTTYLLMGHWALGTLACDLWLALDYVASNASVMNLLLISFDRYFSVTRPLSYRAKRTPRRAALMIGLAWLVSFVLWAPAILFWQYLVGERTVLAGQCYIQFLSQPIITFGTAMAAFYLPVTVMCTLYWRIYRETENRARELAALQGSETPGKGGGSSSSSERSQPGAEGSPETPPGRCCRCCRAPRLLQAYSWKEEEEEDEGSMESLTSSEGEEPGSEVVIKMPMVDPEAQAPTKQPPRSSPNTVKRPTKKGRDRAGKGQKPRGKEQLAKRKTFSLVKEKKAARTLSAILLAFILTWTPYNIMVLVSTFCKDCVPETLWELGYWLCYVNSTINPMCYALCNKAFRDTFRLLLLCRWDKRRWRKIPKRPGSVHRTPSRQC

α1 = experiment: Compound Binding Profiles: α1
α2 = experiment: Compound Binding Profiles: α2
H1 = H1 (Homo sapiens, UniProt P35367); experiment: Compound Binding Profiles: H1; details: * = Estimated IC50
Chain of H1 (P35367 whole entry): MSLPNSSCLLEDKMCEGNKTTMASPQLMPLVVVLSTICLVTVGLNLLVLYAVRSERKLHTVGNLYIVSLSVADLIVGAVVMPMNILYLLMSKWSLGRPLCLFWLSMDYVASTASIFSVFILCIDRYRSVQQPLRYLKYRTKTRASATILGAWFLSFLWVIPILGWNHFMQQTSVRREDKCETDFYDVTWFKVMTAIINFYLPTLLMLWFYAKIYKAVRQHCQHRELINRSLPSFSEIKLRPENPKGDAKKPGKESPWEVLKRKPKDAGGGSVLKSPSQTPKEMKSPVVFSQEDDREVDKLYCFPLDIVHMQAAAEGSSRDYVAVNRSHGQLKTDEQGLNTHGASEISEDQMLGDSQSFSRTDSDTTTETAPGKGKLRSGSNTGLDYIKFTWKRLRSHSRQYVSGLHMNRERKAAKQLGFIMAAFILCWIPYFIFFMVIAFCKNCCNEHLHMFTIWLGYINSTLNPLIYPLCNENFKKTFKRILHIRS

[2] = Novel object recognition test; assay type: in vivo, C57Bl/6J mice; details: for effect on recognition index / object recognition compared to vehicle: 0.1 mg/kg i.p
From the text: Male C57Bl/6J mice from Jackson Laboratories (Bar Harbor, Me.) were used. Mice were received at 6-weeks of age. Upon receipt, mice were assigned unique identification numbers (tail marked) and were group housed in polycarbonate cages with filter tops. All animals remained housed in groups of four during the remainder of the study. All mice were acclimated to the colony room for at least two weeks prior to testing and were subsequently tested at an average age of 8 weeks of age. During the period of acclimation, mice were examined on a regular basis, handled, and weighed to assure adequate health and suitability. Mice were maintained on a 12/12 light/dark cycle with the light on at 6:00 a.m. The room temperature was maintained between 20 and 23° C. with a relative humidity maintained between 30% and 70%. Chow and water were provided ad libitum for the duration of the study. In each test, animals were randomly assigned across treatment groups.
The pH at the 10 mg/kg was around 5.5.
Rolipram, also dissolved in 10% DMSO was only administered 20 min prior to training on Day 2.
On Day 1, mice were habituated to a circular open field environment (d=18 in, h=15 cm) for one hour in cage groups of four. Each Arena was constructed out of acrylic that was painted black to block reflection. On day 2, mice were placed back into the same arena for a training trial and allowed to explore a set of two identical objects placed equidistance apart from both each other and the arena walls. Individual mice were trained for a total of 15 minutes and then placed back into their home cages. On Day 3, mice were placed back into the same arena in the presence of both the familiar (previously explored) and a novel object. The spatial positions of the familiar and novel object (i.e. left-right sides) were counterbalanced between subjects. The difference in time spent exploring each object during the test trial was used as an index of object recognition and memory retention. Each animals test trial was recorded and these tapes were observed and scored after test completion. The first 10 min of each session was scored and object recognition was computed using the formula: (Time spent with novel object*100)/(Total Time exploring both objects). Tissue Harvest
Data were analyzed by analysis of variance (ANOVA) followed by post-hoc comparisons with Fisher Tests when appropriate. An effect was considered significant if p<0.05. Data are represented as the mean and standard error to the mean.

[3] = * = Estimated IC50, hydrochloride

Chain of 5-HT6 receptor (P50406 whole entry): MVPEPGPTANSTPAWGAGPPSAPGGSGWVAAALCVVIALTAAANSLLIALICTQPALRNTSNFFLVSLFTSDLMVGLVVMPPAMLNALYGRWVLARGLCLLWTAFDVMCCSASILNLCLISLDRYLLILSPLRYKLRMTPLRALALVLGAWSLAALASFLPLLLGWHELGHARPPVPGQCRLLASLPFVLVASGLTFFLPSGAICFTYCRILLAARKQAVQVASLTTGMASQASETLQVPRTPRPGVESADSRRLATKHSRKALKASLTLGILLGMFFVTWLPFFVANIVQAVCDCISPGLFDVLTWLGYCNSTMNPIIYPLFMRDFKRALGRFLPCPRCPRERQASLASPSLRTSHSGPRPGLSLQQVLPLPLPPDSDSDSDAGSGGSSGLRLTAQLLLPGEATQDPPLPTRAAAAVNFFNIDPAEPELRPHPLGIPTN

**Q.** Which Ki (5-HT6 receptor; read-out: 5-HT6 Ki) does the source give for `COc1cc(Cl)cc(C(C)Nc2cc(N3CCNCC3)ccc2S(C)(=O)=O)c1OC` (single isomer, unassigned; (+)) [(+) isomer, [1-(5-Chloro-2,3-dimethoxy-phenyl)-ethyl]-(2-methanesulfonyl-5-piperazin-1-yl-phenyl)-amine hydrochloride] here?
**A.** 18 nM

**Q.** With `COc1cc(Cl)cc(C(C)Nc2cc(N3CCNCC3)ccc2S(C)(=O)=O)c1OC` (single isomer, unassigned; (-)) [(−) isomer, [1-(5-Chloro-2,3-dimethoxy-phenyl)-ethyl]-(2-methanesulfonyl-5-piperazin-1-yl-phenyl)-amine hydrochloride] as the compound, how does the Ki (5-HT6 receptor; 5-HT6 Ki) read?
**A.** 4.5 nM

**Q.** With `CC(Nc1cc(N2CCNCC2)ccc1S(C)(=O)=O)c1ccccc1` (stereo not shown) [Compound B, 2-(Methylsulfonyl)-N-(1-phenylethyl)-5-(piperazin-1-yl)benzenamine hydrochloride] as the compound, how does the Ki (5-HT6 receptor; read-out: 5-HT6 Ki) read?
**A.** 47 nM

**Q.** With `COc1cc(OC)cc(C(C)Nc2cc(N3CCNCC3)ccc2C(=O)C(F)(F)F)c1` (stereo not shown) [Compound C, 1-(2-(1-(3,5-Dimethoxyphenyl)ethylamino)-4-(piperazin-1-yl)phenyl)-2,2,2-trifluoroethanone hydrochloride] as the compound, how does the Ki (5-HT6 receptor; read-out: 5-HT6 Ki) read?
**A.** 34 nM

**Q.** For `COc1cc(OC)cc(C(C)Nc2cc(N3CCNCC3)ccc2S(C)(=O)=O)c1.Cl` (stereo not shown) [Compound D, N-(1-(3,5-Dimethoxyphenyl)ethyl-2-(methylsulfonyl)-5-(piperazin-1-yl)-benzeneamine hydrochloride], which Ki (5-HT6 receptor; read-out: 5-HT6 Ki) is on record?
**A.** 27 nM

**Q.** Which results are given for `COc1cc(OC)cc(C(C)Nc2cc(N3CCNCC3)ccc2S(C)(=O)=O)c1.Cl` (stereo not shown) [Compound D]?
**A.** body weight [1]: significant decrease; food intake [1]: significant decrease; plasma level of Insulin [1]: reduction; plasma level of Leptin [1]: reduction; plasma level of NEFA [1]: reduction; plasma level of triglycerides [1]: reduction

**Q.** Which Ki (5HT1A) does the source give for `CC(Nc1cc(N2CCNCC2)ccc1S(C)(=O)=O)c1cc(Cl)cc2c1OCCO2` (stereo not shown) [Cpd. E, N-(1-(6-Chloro-2,3-dihydrobenzo[b][1,4]dioxin-8-yl)ethyl)-2-(methylsulfonyl)-5-(piperazin-1-yl)benzenamine hydrochloride] here?
**A.** 100 to 1000 nM

**Q.** What about the Ki (5HT2A) of the same compound?
**A.** 150 nM

**Q.** And the Ki (5HT2C)?
**A.** 12 nM

**Q.** And the Ki (5-HT6 receptor; binding profile table, read-out: 5HT6 Ki)?
**A.** 1.3 nM

**Q.** And the Ki (D1)?
**A.** 100 to 1000 nM

**Q.** And the IC50 (D2)?
**A.** 613 nM

**Q.** And the Ki (D3)?
**A.** 2.8 nM

**Q.** And the Ki (D4)?
**A.** 100 to 1000 nM

**Q.** And the IC50 (M1; * = Estimated IC50)?
**A.** 10000 nM

**Q.** And the IC50 (α1; [3])?
**A.** 24000 nM

**Q.** What about the IC50 (α2; [3]) of the same compound?
**A.** 30000 nM

**Q.** And the IC50 (H1)?
**A.** 20000 nM

**Q.** With `COc1ccc(C2CNC(=O)C2)cc1OC1CCCC1` (stereo not shown) [Rolipram, reference compound] as the compound, how does the “Exploration time, Diff of Means Novel vs. Familiar” value ([2]; 0.1 mg/kg) read?
**A.** 29.803

**Q.** What about the “time exploring novel object versus familiar object” value ([2]; 0.1 mg/kg) of the same compound?
**A.** spent more time exploring novel object than the familiar object

**Q.** And the “effect on recognition index / object recognition compared to vehicle” value [2]?
**A.** significant, positive effect on object recognition

**Q.** And the “effect on recognition index / object recognition compared to vehicle” value ([2]; listed as rolipram)?
**A.** significantly increased the recognition index

**Q.** And the “Memory index, Mean” value ([2]; 0.1 mg/kg, 10 min test)?
**A.** 71.670

**Q.** What about the “Exploration time, Mean” value ([2]; 0.1 mg/kg, Familiar Object) of the same compound?
**A.** 19.172

**Q.** And the “Exploration time, Mean” value ([2]; 0.1 mg/kg, Novel Object)?
**A.** 48.975

**Q.** What about the “Exploration time, Diff of Means 10% DMSO vs. treatment” value ([2]; within Familiar, 0.1 mg/kg) of the same compound?
**A.** 4.807

**Q.** What about the “Exploration time, Diff of Means treatment vs. 10% DMSO” value ([2]; within Novel, 0.1 mg/kg) of the same compound?
**A.** 17.991

**Q.** Which results are given for `O=C1Cc2cc(CCN3CCN(c4nsc5ccccc45)CC3)c(Cl)cc2N1` [Ziprasidome, reference compound]?
**A.** Ki (5HT1A): < 10 nM; Ki (5-HT6 receptor; read-out: 5HT6 binding class): 11 to 100 nM; Ki (M1; read-out: M1 binding class): < 10 nM; Ki (α1; read-out: α1 binding class): 100 to 1000 nM; Ki (α2; read-out: α2 binding class): 100 to 1000 nM
